Data on 17 compounds can be found in patent US7511074B2, “Tetrafluorobenzyl derivatives and pharmaceutical composition for preventing and treating acute and chronic neurodegenerative diseases in central nervous system containing the same” (AmKor Pharma, Inc., priority 2002, dated 2009).

The melting point is the temperature, or range, at which the solid turns liquid.

One series has as its system Mouse cortical cell cultures. Nature of the series: FeCl2-induced free radical neurotoxicity in mixed cortical cell cultures (LDH assay). It is filed as cell-based. The note with it: continuous 50 μM FeCl2; 1-30 μM; LDH 24 hr later. As to the method: (§1) Mouse cortical cell cultures (DIV 12-14) were exposed to continuously to 50 μM Fe^2+, alone or with inclusion of 0.1-100 μM 2-Hydroxy-TTBA (●) or trolox (◯), a membrane-permeable form of vitamin E). Neuronal death was analyzed 24 hr later by measuring levels of LDH released into the bathing medium, mean ±SEM (n=9-12 culture wells per condition), scaled to mean LDH efflux value 24 hr after sham wash (=0) and continuous exposure to 500 μM NMDA (=100). *, Significant difference from the vehicle control, p<0.05 using ANOVA and Student-Neuman-Keuls' test.
as §1, with “alone (♦)” for “alone”, “1-30” for “0.1-100”, “2-Hydroxy-TTS (●), 2-Hydroxy-TTA (◯), 2-Chloro-TTP (▾), 2-Ethan-TTBA (∇), 2-Propan-TTBA (▪),” for “2-Hydroxy-TTBA (●)”, “2-Cyclohexan-TTBA (□).” for “trolox (◯), a membrane-permeable form of vitamin E).”
(§2) For mixed neuron-glia culture, mouse cerebral cortices were removed from brains of the 14-16 day-old-fetal mice (E14-16), gently triturated and plated on 24 well plates (2×10^5 cells/plate) precoated with 100 μg/ml poly-D-lysine and 4 μg/ml laminine. Cultures were maintained at 37° C. in a humidified 5% CO2 atmosphere. Plating media consist of Eagles minimal essential media (MEM, Earles salts, supplied glutamine-free) supplemented with 5% horse serum, 5% fetal bovine serum, 26.5 mM bicarbonate, 2 mM glutamine, and 21 mM glucose.
(§3) After 7-8 days in vitro (DIV 7-8), 10 μM cytosine arabinofuranoside (Ara-C) was included to halt overgrowth of glia. The drug treatment was carried on DIV 12-15 cortical cell culture. Overall neuronal cell injury was assessed by measuring amount of lactate dehydrogenase (LDH) released into the bathing medium 24 hr after neurotoxic insults as previously described [Koh and Choi, J Neurosci Methods 20:83-90, 1987].
Mixed cortical cell cultures (DIV 13-15) were continuously exposed to 50 μM FeCl2, which produces hydroxyl radical via a Fenton reaction, alone or with inclusion of 2-Hydroxy-TTBA, 2-Hydroxy-TTA, 2-Hydroxy-TTS, 2-Chloro-TTP, 2-Ethan-TTBA, 2-Propan-TTBA, 2-Cyclohexan-TTBA or trolox (a vitamin E analogue) at indicated doses. Neuronal cell death was analyzed 24 hr later by LDH assay as described above. *, Significant difference from the vehicle control (FeCl2), p<0.05 using ANOVA and Student-Neuman-Keuls' test.
On to `O=S(=O)(O)c1cc(NCc2c(F)c(F)c(C(F)(F)F)c(F)c2F)ccc1O` [2-Hydroxy-TTS, 2-hydroxy-5-(2,3,5,6-tetrafluoro-4-trifluoromethylbenzylamino)benzene sulfonic acid], for which the “neuroprotective effect compared with trolox against FeCl2-induced free radical neurotoxicity” value is recorded as “much stronger neuroprotective effects than trolox”. On the same count and under the same terms, with `O=C(O)c1cc(NCc2c(F)c(F)c(C(F)(F)F)c(F)c2F)ccc1OC(=O)C1CCCCC1` [2-Cyclohexan-TTBA, 2-cyclohexanecarbonyloxy-5-(2,3,5,6-tetrafluoro-4-trifluoromethylbenzylamino)benzoic acid] the entry was “much stronger neuroprotective effects than trolox”; with `NC(=O)c1cc(NCc2c(F)c(F)c(C(F)(F)F)c(F)c2F)ccc1O` [2-Hydroxy-TTA, 2-hydroxy-5-(2,3,5,6-tetrafluoro-4-trifluoromethylbenzylamino)benzamide], “much stronger neuroprotective effects than trolox”; with `Oc1ccc(NCc2c(F)c(F)c(C(F)(F)F)c(F)c2F)cc1Cl` [2-Chloro-TTP, 2-chloro-4-(2,3,5,6-tetrafluoro-4-trifluoromethylbenzylamino)phenol], “much stronger neuroprotective effects than trolox”. Same read-out and setting: for `CCC(=O)Oc1ccc(NCc2c(F)c(F)c(C(F)(F)F)c(F)c2F)cc1C(=O)O` [2-Propan-TTBA, 2-propanoyloxy-5-(2,3,5,6-tetrafluoro-4-trifluoromethylbenzylamino)benzoic acid] the value was “much stronger neuroprotective effects than trolox”. For the compound `CC(=O)Oc1ccc(NCc2c(F)c(F)c(C(F)(F)F)c(F)c2F)cc1C(=O)O` [2-Ethan-TTBA, 2-ethanoyloxy-5-(2,3,5,6-tetrafluoro-4-trifluoromethylbenzylamino)benzoic acid], the “neuroprotective effect compared with trolox against FeCl2-induced free radical neurotoxicity” value is given as “much stronger neuroprotective effects than trolox”.

The same series, now with this note: continuous 50 μM FeCl2; LDH 24 hr later.
Consider `Cc1c(C)c2c(c(C)c1O)CCC(C)(C(=O)O)O2` (stereo not drawn) [trolox, reference compound], for which the “prevention of FeCl2-induced free radical neurotoxicity” value is “prevented FeCl2-induced free radical neurotoxicity in a dose-dependent manner”.

Another series has as its system Mouse cortical cell cultures. Nature of the series: SNP (sodium nitroprusside) cytotoxicity in mixed cortical cell cultures (LDH assay). The settings on record: continuous 5 μM SNP; LDH 24 hr later. The series is classed as cell-based. The method, then:
Mouse cortical cell cultures (DIV 12-14) were exposed to continuously 5 μM sodium nitroprusside (SNP), alone (●) or with inclusion of 0.1-10 mM aspirin (◯), 1-100 μM trolox (▾), or 0.1-10 μM 2-Hydroxy-TTBA (∇). Neuronal death was analyzed 24 hr later by measuring levels of LDH released into the bathing medium, mean ±SEM (n=9-12 culture wells per condition), scaled to mean LDH efflux value 24 hr after sham wash (=0) and continuous exposure to 500 μM NMDA (=100). *, Significant difference from the vehicle control, p<0.05 using ANOVA and Student-Neuman-Keuls' test.
as §2, §3
Mixed cortical cell cultures were continuously exposed to 5 μM SNP, a nitric oxide (NO) donor, alone or with inclusion of 0.1-10 μM 2-Hydroxy-TTBA, 1-10 μM trolox or 100-10,000 μM aspirin. Neuronal cell death was analyzed 24 hr later by LDH assay. *, Significant difference from the vehicle control (SNP), p<0.05 using ANOVA and Student-Neuman-Keuls' test.
On to `Cc1c(C)c2c(c(C)c1O)CCC(C)(C(=O)O)O2` (stereo not drawn) [trolox, reference compound], for which the “effect on SNP toxicity” value is on record as “completely blocked”. Same read-out and setting: for `CC(=O)Oc1ccccc1C(=O)O` [Aspirin, aspirin, reference compound] the value was “did not reduce SNP cytotoxicity”.

Test system in the next series: not given
Assay: not given
Settings: not given
The compound `O=C(O)c1cc(NCc2c(F)c(F)c(C(F)(F)F)c(F)c2F)ccc1Cl` [Synthesis Example 3, 2-chloro-5-(2,3,5,6-tetrafluoro-4-trifluoromethylbenzylamino)benzoic acid] came in with a melting point of 58 °C. Still for that read-out and setting: for `COC(=O)c1cc(NCc2c(F)c(F)c(C(F)(F)F)c(F)c2F)ccc1O` [Synthesis Example 13, methyl 2-hydroxy-5-(2,3,5,6-tetrafluoro-4-trifluoromethylbenzylamino)benzoate] the value was 127 °C; for `Cc1c(F)c(F)c(CNc2ccc(O)c(C(=O)O)c2)c(F)c1F` [Synthesis Example 5, 2-hydroxy-5-(2,3,5,6-tetrafluoro-4-methylbenzylamino)benzoic acid], 212 °C; for `O=C(O)c1cc(NCc2c(F)c(F)c(C(F)(F)F)c(F)c2F)ccc1[N+](=O)[O-]` [Synthesis Example 2, 2-nitro-5-(2,3,5,6-tetrafluoro-4-trifluoromethylbenzylamino)benzoic acid], 121 °C. With `COc1ccc(NCc2c(F)c(F)c(C(F)(F)F)c(F)c2F)cc1C(=O)O` [Synthesis Example 7, 2-methoxy-5-(2,3,5,6-tetrafluoro-4-trifluoromethylbenzylamino)benzoic acid], the melting point came out at 94 °C. As for `Cc1ccc(NCc2c(F)c(F)c(C(F)(F)F)c(F)c2F)cc1C(=O)O` [Synthesis Example 6, 2-methyl-5-(2,3,5,6-tetrafluoro-4-trifluoromethylbenzylamino)benzoic acid], the melting point stood at 84 °C. The same measure, in the same setting: for `O=C(O)c1cc(NCc2c(F)c(F)c(C(F)(F)F)c(F)c2F)ccc1Br` [Synthesis Example 4, 2-bromo-5-(2,3,5,6-tetrafluoro-4-trifluoromethylbenzylamino)benzoic acid] the value was 70 °C.

For the compound `O=[N+]([O-])c1cc(NCc2c(F)c(F)c(C(F)(F)F)c(F)c2F)ccc1O` [Synthesis Example 9, 2-nitro-4-(2,3,5,6-tetrafluoro-4-trifluoromethylbenzylamino)phenol], the melting point was in the range of 126 to 128 °C. Turning to `O=C(O)c1cc(NCc2c(F)c(F)c(C(F)(F)F)c(F)c2F)ccc1OC(F)(F)F` [Synthesis Example 8, 5-(2,3,5,6-tetrafluoro-4-trifluoromethylbenzylamino)-2-trifluoromethoxybenzoic acid], the melting point is 38 °C.
